pEC50: −log10 of the molar value. e = 2'-O-(2-methoxyethyl) (MOE); k = constrained ethyl (cEt); d = 2'-deoxy (DNA); f = 2'-fluoro
Target: EGFR (Homo sapiens, UniProt P00533)
Test: Competitive NanoBRET binding assay
Parameters: made in house; host or cells: HEK293 cells
Details: Competitive BRET vs 10 nM AF594-labeled 766636; Table 6
Description: NanoBRET (bioluminescence resonance energy transfer) binding assays were performed as described in Vickers and Crooke. PLOS One, 11(8), (2016). An EGFR NLuc construct was prepared by first amplifying human EGFR from the full length cDNA clone (Origene RC217223) with forward PCR primer 5′-[…]-3′ (SEQ ID NO: 1) and reverse PCR primer 5′-[…] (SEQ ID NO: 2). The amplified product was ligated into the NheI and XhoI sites of the NanoLuc expression vector pFC32K Nluc CMV-Neo (Promega). Protein was expressed in HEK293 cells and isolated using Protein G magnetic beads. For competitive BRET, the Alexafluor594-labeled modified oligonucleotide 766636 was diluted into water in opaque white 96-well plates at 10 nM and competed with 0.1-10,000 nM of unlabeled modified oligonucleotide. […] of 2× binding buffer containing […] (relative luminescence units) beads/well was added and plates were shaken for 10 minutes at room temperature. Nanoluciferase activity and BRET were measured in a Glowmax Discover plate reader and EC50 values, shown in the tables below, were calculated using GraphPad Prism. For direct BRET, Alexafluor594 modified nucleotides were diluted at 0.1-10,000 nM and experiments were performed as described above.

Sequence	pEC50
AACGAGGTACTGTGTAAGTC (sugars from the 5' end f5 d10 f5, all phosphorothioate, methylation of C and T or U not given here) [compound 1147369]	5.58
AAGCAGTTGGTGGTGC (sugars from the 5' end k3 d10 k3, all phosphorothioate, methylation of C not given here) [compound 999005]	7.41
AATCTCCTTGCTGTATTTGT (sugars from the 5' end f5 d10 f5, all phosphorothioate, methylation of C and T or U not given here) [compound 1147334, 5-10-5 2′-F gapmer, phosphorothioate]	5.36
ACACGGTATTGCCCTTGAAA (sugars from the 5' end e5 d10 e5, all phosphorothioate, methylation of C not given here) [compound 110128, 5-10-5 2′-MOE gapmer, phosphorothioate]	5.64
ACCCAATTCAGAAGGAAGGA (sugars from the 5' end e5 d10 e5, all phosphorothioate, methylation of C not given here) [compound 476366, 5-10-5 2′-MOE gapmer, phosphorothioate]	5.65
AGGATGCATTGCTGAC (sugars from the 5' end k3 d10 k3, all phosphorothioate, methylation of C not given here) [compound 999006]	5.77
AGTTGTCATGGATGAC (sugars from the 5' end k3 d10 k3, all phosphorothioate, methylation of C not given here) [compound 999003]	5.64
ATATTGCATCAGATCTCAAT (sugars from the 5' end f5 d10 f5, all phosphorothioate, methylation of C and T or U not given here) [compound 1147370]	5.33
AUAAUCTTCCAGGGCCACAA (sugars from the 5' end f5 d10 f5, all phosphorothioate, methylation of C not given here) [compound 1147360, 5-10-5 2′-F gapmer, phosphorothioate]	6.97
CAGCAGGCAACTGTCGCTGA (sugars from the 5' end e5 d10 e5, all phosphorothioate, methylation of C not given here) [compound 462026, 5-10-5 2′-MOE gapmer, phosphorothioate]	6.17
CCTTCCACAATGCCAA (sugars from the 5' end k3 d10 k3, all phosphorothioate, methylation of C not given here) [compound 999002, 3-10-3 cEt gapmer, phosphorothioate]	6.20
CCTTCCCTGAAGGTTCCTCC (sugars from the 5' end f5 d10 f5, all phosphorothioate, methylation of C and T or U not given here) [compound 804856, 5-10-5 2′-F gapmer, phosphorothioate]	5.56
CTAACATGCAATACTGCAGA (sugars from the 5' end e5 d10 e5, all phosphorothioate, methylation of C not given here) [compound 395257, 5-10-5 2′-MOE gapmer, phosphorothioate]	5.58
CTGATGATCTGCAGGTTTTC (sugars from the 5' end f5 d10 f5, all phosphorothioate, methylation of C and T or U not given here) [compound 1147367]	6.94
CTTTCCAGAGGGGCCA (sugars from the 5' end k3 d10 k3, all phosphorothioate, methylation of C not given here) [compound 998998, 3-10-3 cEt gapmer, phosphorothioate]	8.14
CUGUUGGGATATTTTAGCCU (sugars from the 5' end f5 d10 f5, all phosphorothioate, methylation of C not given here) [compound 1147366]	7.06
GACTGTGGTCATGAGC (sugars from the 5' end k3 d10 k3, all phosphorothioate, methylation of C not given here) [compound 999001]	5.63
GAGTCAGTATCCCAGTGTCT (sugars from the 5' end f5 d10 f5, all phosphorothioate, methylation of C and T or U not given here) [compound 1147314, 5-10-5 2′-F gapmer, phosphorothioate]	6.66
GGCCATCACGCCACAG (sugars from the 5' end k3 d10 k3, all phosphorothioate, methylation of C not given here) [compound 998997, 3-10-3 cEt gapmer, phosphorothioate]	5.55
TAAGTACTACTGGGCCATGG (sugars from the 5' end e5 d10 e5, all phosphorothioate, methylation of C not given here) [compound 324568, 5-10-5 2′-MOE gapmer, phosphorothioate]	6.19
TCCACAGTCTTCTGGG (sugars from the 5' end k3 d10 k3, all phosphorothioate, methylation of C not given here) [compound 998999, 3-10-3 cEt gapmer, phosphorothioate]	6.67
TCGTCTGTGCATCTCTCCTG (sugars from the 5' end f5 d10 f5, all phosphorothioate, methylation of C and T or U not given here) [compound 1147291, 5-10-5 2′-F gapmer, phosphorothioate]	6.78
TGGCAGTGATGGCATG (sugars from the 5' end k3 d10 k3, all phosphorothioate, methylation of C not given here) [compound 999000]	5.85
TGGTAATCCACTTTCAGAGG (sugars from the 5' end e5 d10 e5, all phosphorothioate, methylation of C not given here) [compound 404071, 5-10-5 2′-MOE gapmer, phosphorothioate]	5.50
TTCTGGGCAGCCCCAC (sugars from the 5' end k3 d10 k3, all phosphorothioate, methylation of C not given here) [compound 998996, 3-10-3 cEt gapmer, phosphorothioate]	5.84
TTTTGGCAAAGTAATCGTCC (sugars from the 5' end e5 d10 e5, all phosphorothioate, methylation of C not given here) [compound 286529, 5-10-5 2′-MOE gapmer, phosphorothioate]	5.73
